Data as given in PubChem BioAssay (NCI).
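Growth conditions: 96-well plates. Treatment: test compound, 48 hours, 5 concentrations. Analysis: linear interpolation between bracketing concentrations; unreached endpoints set to highest concentration. Abbreviation: GI50, concentration required for 50% inhibition of growth. At the TGI there is no net growth.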

Assays:
Assay in all cases: NCI anticancer screen, dose series, 48 h
COLO 205 colon = test system: COLO 205 colon
HCC-2998 colon = test system: HCC-2998 colon
OVCAR-3 ovarian = test system: OVCAR-3 ovarian
SF-268 CNS = test system: SF-268 CNS
786-0 renal = test system: 786-0 renal
SK-MEL-2 melanoma = test system: SK-MEL-2 melanoma
K-562 leukemia = test system: K-562 leukemia
UACC-62 melanoma = test system: UACC-62 melanoma
A549 NSCLC = test system: A549 NSCLC
PC-3 prostate = test system: PC-3 prostate

Compound	GI50 (COLO 205 colon)	TGI (COLO 205 colon)	GI50 (HCC-2998 colon)	TGI (HCC-2998 colon)	GI50 (OVCAR-3 ovarian)	TGI (OVCAR-3 ovarian)	GI50 (SF-268 CNS)	TGI (SF-268 CNS)	GI50 (786-0 renal)	TGI (786-0 renal)	GI50 (SK-MEL-2 melanoma)	TGI (SK-MEL-2 melanoma)	TGI (K-562 leukemia)	TGI (UACC-62 melanoma)	TGI (A549 NSCLC)	GI50 (UACC-62 melanoma)	GI50 (A549 NSCLC)	GI50 (PC-3 prostate)	TGI (PC-3 prostate)	GI50 (K-562 leukemia)
CCc1c(C#N)c(S[C@@H](C(N)=O)c2ccccc2)nc(N(C)C)c1C#N	> 100 µM	> 100 µM	> 100 µM	> 100 µM	> 100 µM	> 100 µM	5.07 µM	> 100 µM	21.1 µM	> 100 µM	> 100 µM	> 100 µM	–	–	–	–	–	–	–	–
CC1(c2cccc3ccccc23)OC(=O)c2ccccc21 (configuration not stated)	–	29.8 µM	–	35.6 µM	–	58.1 µM	–	93 µM	–	71.3 µM	–	62.6 µM	65.8 µM	25.6 µM	49.7 µM	–	–	–	–	–
O=C(CC1(O)C(=O)Nc2c(Cl)ccc(Cl)c21)c1ccc2ccccc2c1 (configuration not stated)	–	28.7 µM	–	35.6 µM	–	14.3 µM	–	36.2 µM	–	22.4 µM	–	26.3 µM	–	10.7 µM	39.6 µM	–	–	–	–	–
CCC/C(=N/N=C(N)N)c1ccc(NC(=O)c2cc3cc(OC)ccc3[nH]2)cc1	9.77 µM	30 µM	15.1 µM	39 µM	6.36 µM	29.7 µM	5.22 µM	29.9 µM	3.61 µM	29.2 µM	18.3 µM	38.9 µM	–	35 µM	38.1 µM	14.7 µM	13.1 µM	–	–	–
N#CC(C(=O)/C(=N/N)C(C#N)c1ccccc1)c1ccccc1 (configuration not stated)	–	–	–	> 100 µM	–	> 100 µM	–	> 100 µM	–	> 100 µM	–	> 100 µM	> 100 µM	> 100 µM	> 100 µM	–	–	–	–	–
CC(=O)OC[C@]1(O)CC[C@@]23CC1C[C@@H]2CCC1C(C)(C)CCC[C@@]13C (some centres not stated)	–	33.1 µM	–	33 µM	–	30.8 µM	–	30.4 µM	–	31.6 µM	–	–	20.3 µM	26.2 µM	29.6 µM	–	–	–	–	–
O=C1C(Cl)=C(Nc2cccc(Cl)c2)C(=O)N1Cc1ccccc1Cl	–	–	–	–	2.14 µM	16.1 µM	13.1 µM	36 µM	1.21 µM	16.3 µM	4.33 µM	23.1 µM	8.91 µM	12.8 µM	26.5 µM	3.05 µM	10.2 µM	4.8 µM	21.3 µM	1.87 µM
O=c1cc2ccccc2nn1Cc1cccc(Cl)c1	–	> 100 µM	–	> 100 µM	–	> 100 µM	–	> 100 µM	–	> 100 µM	–	> 100 µM	> 100 µM	> 100 µM	> 100 µM	–	–	–	–	–
Oc1ccccc1C=NCc1ccco1	–	–	–	–	–	> 100 µM	–	> 100 µM	–	> 100 µM	–	–	> 100 µM	> 100 µM	> 100 µM	–	–	–	–	–
CCC/C(=N/NC(=O)C(N)=O)C(CC)C(=O)CCC(=O)N(Cc1ccccc1)Cc1ccccc1 (configuration not stated)	–	> 100 µM	–	> 100 µM	–	> 100 µM	–	> 100 µM	–	> 100 µM	–	> 100 µM	> 100 µM	> 100 µM	> 100 µM	–	–	–	–	–
COc1cc(/C=C(\C#N)C(=O)c2ccccc2)ccc1O	–	> 100 µM	–	> 100 µM	–	> 100 µM	–	> 100 µM	–	> 100 µM	–	> 100 µM	> 100 µM	> 100 µM	> 100 µM	–	–	–	–	–
N#CC(C(=O)CCC(=O)C(C#N)c1ccccc1)c1ccccc1 (configuration not stated)	–	> 100 µM	–	> 100 µM	–	> 100 µM	–	> 100 µM	–	> 100 µM	–	> 100 µM	> 100 µM	> 100 µM	> 100 µM	–	–	–	–	–
CC(=O)[CH-]C(=O)c1ccccc1.CC(=O)[CH-]C(=O)c1ccccc1.CC1(C)C2CCC1(C)C([O-])C2.CC1(C)C2CCC1(C)C([O-])C2.[Ti+4]	38.4 µM	> 100 µM	38.5 µM	> 100 µM	59.3 µM	> 100 µM	34.8 µM	> 100 µM	25.9 µM	> 100 µM	14.2 µM	29.6 µM	> 100 µM	51.3 µM	> 100 µM	16.7 µM	23.9 µM	–	–	30.5 µM
CCCCCCCCCCCCCC(=O)CC(=O)c1c(O)cccc1O	–	55.1 µM	–	> 100 µM	–	37.3 µM	–	> 100 µM	–	> 100 µM	–	41.4 µM	48.2 µM	> 100 µM	> 100 µM	–	–	–	–	–
N#C/C(=C/c1ccc[nH]1)P(=O)(O)O	–	> 100 µM	–	> 100 µM	–	> 100 µM	–	> 100 µM	–	> 100 µM	–	> 100 µM	> 100 µM	> 100 µM	> 100 µM	–	–	–	–	–
CC(=O)[CH-]C(=O)c1ccccc1.CC(=O)[CH-]C(=O)c1ccccc1.[Eu+3].[OH-].[OH3+]	> 100 µM	> 100 µM	> 100 µM	> 100 µM	–	–	–	–	> 100 µM	> 100 µM	–	–	> 100 µM	> 100 µM	> 100 µM	> 100 µM	> 100 µM	–	–	> 100 µM
CCn1c(CN2CCN(Cc3ccccc3)CC2)nc2cc(NC(=O)c3cccs3)ccc21	13.5 µM	29.3 µM	17.3 µM	35.6 µM	20.6 µM	> 100 µM	25.4 µM	97.9 µM	21.4 µM	66.1 µM	20 µM	39.3 µM	87.9 µM	31.5 µM	–	14.3 µM	–	20.8 µM	> 100 µM	15.1 µM
Cc1ccccc1N=Nc1ccc(NC(=O)c2ccnn2C)c(C)c1	> 100 µM	> 100 µM	> 100 µM	> 100 µM	> 100 µM	> 100 µM	31.7 µM	> 100 µM	18.8 µM	> 100 µM	28.6 µM	> 100 µM	–	> 100 µM	> 100 µM	97.2 µM	73.9 µM	92.7 µM	> 100 µM	–
Clc1cc(Cc2cc(Cl)c(Cl)c3c2OCOC3)c2c(c1Cl)COCO2	–	> 100 µM	–	> 100 µM	–	69 µM	–	> 100 µM	–	62.4 µM	–	> 100 µM	> 100 µM	> 100 µM	> 100 µM	–	–	–	–	–
